According to ChEMBL document CHEMBL5154841, “Optimization of NAMPT activators to achieve in vivo neuroprotective efficacy” (Eur J Med Chem, 2022):
Blank lines part the entries; values can stand above or below the compound they belong to.

Key:
[1] = Cytoprotective activity against FK866- induced cell death in human U2OS cells assessed as increase in viable cells by measuring relative AUC at 10 uM incubated for […] by fluorometric analysis relative to NAT; type: functional
[2] = Half life in CD-1 mouse at 1 mg/kg, iv measured after 24 hrs by LC-MS/MS analysis; type: ADME, organism-based; details: in vivo
[3] = Half life in CD-1 mouse at 30 mg/kg, ip measured after 24 hrs by LC-MS/MS analysis; type: ADME, organism-based; details: in vivo
[4] = Half life in CD-1 mouse at 30 mg/kg, po measured after 24 hrs by LC-MS/MS analysis; type: ADME, organism-based; details: in vivo
[5] = Tmax in CD-1 mouse at 30 mg/kg, ip measured after 24 hrs by LC-MS/MS analysis; type: ADME, organism-based; details: in vivo
[6] = Tmax in CD-1 mouse at 30 mg/kg, po measured after 24 hrs by LC-MS/MS analysis; type: ADME, organism-based; details: in vivo
[7] = Cmax in CD-1 mouse at 30 mg/kg, ip measured after 24 hrs by LC-MS/MS analysis; type: ADME, organism-based; design: time 24 hrs, dose 30 mg/kg, route ip; details: in vivo
[8] = Cmax in CD-1 mouse at 30 mg/kg, po measured after 24 hrs by LC-MS/MS analysis; type: ADME, organism-based; design: dose 30 mg/kg, time 24 hrs, route po; details: in vivo
[9] = AUClast in CD-1 mouse at 1 mg/kg, iv measured after 24 hrs by LC-MS/MS analysis; type: ADME, organism-based; design: dose 1 mg/kg, time 24 hrs, route iv; details: in vivo
[10] = AUClast in CD-1 mouse at 30 mg/kg, ip measured after 24 hrs by LC-MS/MS analysis; type: ADME, organism-based; design: dose 30 mg/kg, time 24 hrs, route ip; details: in vivo
[11] = AUClast in CD-1 mouse at 30 mg/kg, po measured after 24 hrs by LC-MS/MS analysis; type: ADME, organism-based; design: dose 30 mg/kg, time 24 hrs, route po; details: in vivo
[12] = AUCinfinity in CD-1 mouse at 1 mg/kg, iv measured after 24 hrs by LC-MS/MS analysis; type: ADME, organism-based; design: time 24 hrs, dose 1 mg/kg, route iv; details: in vivo
[13] = AUCinfinity in CD-1 mouse at 30 mg/kg, ip measured after 24 hrs by LC-MS/MS analysis; type: ADME, organism-based; design: dose 30 mg/kg, time 24 hrs, route ip; details: in vivo
[14] = AUCinfinity in CD-1 mouse at 30 mg/kg, po measured after 24 hrs by LC-MS/MS analysis; type: ADME, organism-based; design: dose 30 mg/kg, time 24 hrs, route po; details: in vivo
[15] = Clearance in CD-1 mouse at 1 mg/kg, iv measured after 24 hrs by LC-MS/MS analysis; type: ADME, organism-based; details: in vivo
[16] = Volume of distribution at steady state in CD-1 mouse at 1 mg/kg, iv measured after 24 hrs by LC-MS/MS analysis; type: ADME, organism-based; details: in vivo, read-out: Vdss
[17] = Bioavailability in CD-1 mouse at 30 mg/kg, ip measured after 24 hrs by LC-MS/MS analysis; type: ADME, organism-based; details: in vivo
[18] = Oral bioavailability in CD-1 mouse at 30 mg/kg measured after 24 hrs by LC-MS/MS analysis; type: ADME, organism-based; details: in vivo
U2OS = assay: Cytotoxicity against human U2OS cells assessed as effect on cell viability up to 10 uM measured after 72 hrs by Celltiter-glo luminescent cell viability assay; type: toxicity, cell-based
T98G = assay: Cytotoxicity against human T98G cells assessed as effect on cell viability up to 10 uM measured after 72 hrs by Celltiter-glo luminescent cell viability assay; type: toxicity, cell-based
SH-SY5Y = assay: Cytotoxicity against human SH-SY5Y cells assessed as effect on cell viability up to 10 uM measured after 72 hrs by Celltiter-glo luminescent cell viability assay; type: toxicity, cell-based
HepG2 = assay: Cytotoxicity against human HepG2 cells assessed as effect on cell viability up to 10 uM measured after 72 hrs by Celltiter-glo luminescent cell viability assay; type: toxicity, cell-based; details: hepg2, 72 h
[19] = Toxicity in C57BL/6J mouse assessed as body weight loss at 1 to 3 mg/kg, iv qd administered for 2 weeks and measured every day; type: organism-based; details: in vivo, 336 h, dose 1-3 mg/kg

Compound: CC(C)(C)c1cc(Cl)c(F)cc1OCC(=O)Nc1ccc(O)cc1
Activity [1]: 40%

Compound: O=C(COc1ccccc1)Nc1ccc(O)cc1
Activity [1]: 10%

Compound: CC(C)(C)c1ccc(F)cc1OCC(=O)Nc1ccc(O)cc1
Activity [1]: 171%

Compound: COC(=O)c1ccc(OCC(=O)Nc2ccc(O)cc2)c(C(C)(C)C)c1
Activity [1]: 133%

Compound: CC(C)(C)c1cc(Cl)ccc1OCC(=O)Nc1ccc(O)cc1
Activity [1]: 32%

Compound: COc1ccc(OCC(=O)Nc2ccc(O)cc2)c(C(C)(C)C)c1
Activity [1]: 138%

Compound: CC(C)(C)c1cc(C#N)ccc1OCC(=O)Nc1ccc(O)cc1
Activity [1]: 126%

Compound: CC(C)(C)c1cccc(F)c1OCC(=O)Nc1ccc(O)cc1
Activity [1]: 235%

half-life [2]: 17.4 min
half-life [3]: 180 min
half-life [4]: 178 min
Tmax [5]: 19.8 min
Tmax [6]: 15 min
Cmax [7]: 1520 ng/mL
Cmax [8]: 1620 ng/mL
AUC(0-t) at 24 h [9]: 212 ng·h/mL
AUC(0-t) at 24 h [10]: 2510 ng·h/mL
AUC(0-t) at 24 h [11]: 2120 ng·h/mL
AUC(0-inf) [12]: 214 ng·h/mL
AUC(0-inf) [13]: 2520 ng·h/mL
AUC(0-inf) [14]: 2130 ng·h/mL
clearance [15]: 78.8 mL/min/kg
Vd [16]: 1.3 L/kg
bioavailability [17]: 39.2%
bioavailability [18]: 33.2%
Compound: CC(C)(C)c1ccccc1OCC(=O)Nc1ccc(O)cc1

Compound: CC(C)(C)c1cc(Br)ccc1OCC(=O)Nc1ccc(O)cc1
Activity [1]: 40%

Compound: CC(C)(C)c1cc(O)ccc1OCC(=O)Nc1ccc(O)cc1
Activity [1]: 149%

Compound: CC(C)(C)c1cccc(C#N)c1OCC(=O)Nc1ccc(O)cc1
Activity (U2OS): Non-Toxic
Activity (T98G): Non-Toxic
Activity (SH-SY5Y): Non-Toxic
Activity (HepG2): Non-Toxic
Activity [19]: Non-Toxic
half-life [2]: 10.8 min
half-life [3]: 63 min
half-life [4]: 80.4 min
Tmax [5]: 15 min
Tmax [6]: 15 min
Cmax [7]: 1560 ng/mL
Cmax [8]: 188 ng/mL
AUC(0-t) at 24 h [9]: 183 ng·h/mL
AUC(0-t) at 24 h [10]: 1330 ng·h/mL
AUC(0-t) at 24 h [11]: 388 ng·h/mL
AUC(0-inf) [12]: 185 ng·h/mL
AUC(0-inf) [13]: 1340 ng·h/mL
AUC(0-inf) [14]: 395 ng·h/mL
clearance [15]: 90.4 mL/min/kg
Vd [16]: 1.13 L/kg
bioavailability [17]: 24.2%
bioavailability [18]: 7.05%

Compound: CC(C)(C)c1ccc(C#N)cc1OCC(=O)Nc1ccc(O)cc1
Activity [1]: 206%
